Blank lines part the entries; values can stand above or below the molecule they belong to. Calls of active or inactive are those of the source.
How the values were obtained:
[1] = molecular target: T1, Rac GTPase-activating protein 1 (Homo sapiens, UniProt Q9H0H5); assay: blockers of MgcRacGAP-driven Rac1 GTP hydrolysis – biochemical, ADP Hunter fluorescence, primary and confirmatory, confirmation (AID 624330); format: functional
T1 sequence (Q9H0H5 whole entry): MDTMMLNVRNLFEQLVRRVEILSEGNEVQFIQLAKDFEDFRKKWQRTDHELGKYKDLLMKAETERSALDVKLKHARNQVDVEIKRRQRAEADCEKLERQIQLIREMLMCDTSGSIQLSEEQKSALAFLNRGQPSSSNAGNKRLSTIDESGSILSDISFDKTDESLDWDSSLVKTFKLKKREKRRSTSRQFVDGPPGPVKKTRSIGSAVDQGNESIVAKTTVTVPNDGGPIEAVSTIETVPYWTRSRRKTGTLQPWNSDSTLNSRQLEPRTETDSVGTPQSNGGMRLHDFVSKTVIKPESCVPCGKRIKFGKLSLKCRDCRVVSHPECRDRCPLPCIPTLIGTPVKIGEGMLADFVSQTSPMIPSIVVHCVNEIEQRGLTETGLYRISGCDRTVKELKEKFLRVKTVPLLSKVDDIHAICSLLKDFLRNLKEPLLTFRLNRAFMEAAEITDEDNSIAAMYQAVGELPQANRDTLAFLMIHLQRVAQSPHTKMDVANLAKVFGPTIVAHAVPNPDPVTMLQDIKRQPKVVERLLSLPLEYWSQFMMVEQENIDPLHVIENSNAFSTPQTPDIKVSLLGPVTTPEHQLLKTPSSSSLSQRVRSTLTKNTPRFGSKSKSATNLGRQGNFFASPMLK

[2] = Trypanosoma cruzi growth suppression in host cells – NIH3T3 host cells, beta-gal luminescence, confirmation (AID 2044); format: functional, cell-based;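 further: intracellular parasites grown in NIH/3T3 mouse fibroblasts as host cells; luminescent beta-galactosidase reporter signal from transgenic T. cruzi replicating inside host cells; inhibitors lower the luminescence signal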
[3] = NIH3T3 cell viability loss – ATP luminescence, mouse fibroblasts, counter-screen, dose response (AID 2010); format: functional, cell-based;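 further: cells exposed to compound for about 90 hours before reading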
[4] = molecular target: Cytochrome P450 2C19 (Homo sapiens, UniProt P33261); assay: Cytochrome panel assay with activity outcomes. Panel member name: p450-cyp2c19 Compounds with AC50 equal or less than 10 uM are considered active; format: functional
Sequence of Cytochrome P450 2C19 (P33261 whole entry): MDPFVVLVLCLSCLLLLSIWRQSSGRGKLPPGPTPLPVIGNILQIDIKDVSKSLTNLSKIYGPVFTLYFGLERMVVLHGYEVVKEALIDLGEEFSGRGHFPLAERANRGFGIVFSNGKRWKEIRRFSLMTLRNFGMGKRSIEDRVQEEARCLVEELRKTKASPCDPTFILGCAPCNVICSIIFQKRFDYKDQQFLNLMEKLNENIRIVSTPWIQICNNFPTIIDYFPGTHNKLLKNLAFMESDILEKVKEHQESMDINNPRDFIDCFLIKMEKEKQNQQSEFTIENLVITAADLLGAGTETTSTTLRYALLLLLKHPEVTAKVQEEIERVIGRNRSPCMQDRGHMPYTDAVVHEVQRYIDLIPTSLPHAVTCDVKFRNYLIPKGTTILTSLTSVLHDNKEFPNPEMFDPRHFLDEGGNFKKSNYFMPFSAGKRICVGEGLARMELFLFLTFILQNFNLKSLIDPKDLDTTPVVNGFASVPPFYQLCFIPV

[5] = molecular target: Cytochrome P450 2C9 (Homo sapiens, UniProt P11712)
Sequence of Cytochrome P450 2C9 (P11712 whole entry): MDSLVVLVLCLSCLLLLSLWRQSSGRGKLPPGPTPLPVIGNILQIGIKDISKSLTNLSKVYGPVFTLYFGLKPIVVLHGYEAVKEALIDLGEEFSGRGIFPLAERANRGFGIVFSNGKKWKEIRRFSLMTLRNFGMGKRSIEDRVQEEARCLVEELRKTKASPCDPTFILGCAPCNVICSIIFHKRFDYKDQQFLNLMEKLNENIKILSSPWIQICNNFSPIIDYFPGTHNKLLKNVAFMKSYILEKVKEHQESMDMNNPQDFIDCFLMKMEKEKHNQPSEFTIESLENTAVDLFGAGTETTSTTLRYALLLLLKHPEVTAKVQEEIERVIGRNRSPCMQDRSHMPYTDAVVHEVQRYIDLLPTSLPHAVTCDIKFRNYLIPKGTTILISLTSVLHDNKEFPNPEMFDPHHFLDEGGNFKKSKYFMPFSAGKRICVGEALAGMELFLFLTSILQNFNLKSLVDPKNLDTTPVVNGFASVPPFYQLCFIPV

[6] = molecular target: T2, Cytochrome P450 1A2 (Homo sapiens, UniProt P05177);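 further: PubChem cytochrome P450 panel assay, CYP1A2 panel member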
T2 sequence (P05177 whole entry): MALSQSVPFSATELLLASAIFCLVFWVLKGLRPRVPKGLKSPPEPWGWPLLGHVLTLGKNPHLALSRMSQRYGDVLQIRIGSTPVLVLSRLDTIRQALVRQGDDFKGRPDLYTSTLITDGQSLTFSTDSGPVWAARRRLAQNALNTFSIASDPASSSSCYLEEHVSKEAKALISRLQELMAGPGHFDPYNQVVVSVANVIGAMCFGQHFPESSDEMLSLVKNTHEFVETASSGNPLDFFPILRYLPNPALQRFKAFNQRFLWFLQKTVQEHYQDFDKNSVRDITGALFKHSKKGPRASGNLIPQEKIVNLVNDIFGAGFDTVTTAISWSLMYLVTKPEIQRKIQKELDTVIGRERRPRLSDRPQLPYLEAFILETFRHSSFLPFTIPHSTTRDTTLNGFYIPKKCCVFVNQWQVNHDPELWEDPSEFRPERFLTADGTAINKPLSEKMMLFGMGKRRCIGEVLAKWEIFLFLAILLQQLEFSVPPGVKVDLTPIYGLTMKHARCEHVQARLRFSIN

[7] = molecular target: Cytochrome P450 3A4 (Homo sapiens, UniProt P08684);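 further: CYP3A4 tested as one member of a cytochrome P450 panel screen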
Sequence of Cytochrome P450 3A4 (P08684 whole entry): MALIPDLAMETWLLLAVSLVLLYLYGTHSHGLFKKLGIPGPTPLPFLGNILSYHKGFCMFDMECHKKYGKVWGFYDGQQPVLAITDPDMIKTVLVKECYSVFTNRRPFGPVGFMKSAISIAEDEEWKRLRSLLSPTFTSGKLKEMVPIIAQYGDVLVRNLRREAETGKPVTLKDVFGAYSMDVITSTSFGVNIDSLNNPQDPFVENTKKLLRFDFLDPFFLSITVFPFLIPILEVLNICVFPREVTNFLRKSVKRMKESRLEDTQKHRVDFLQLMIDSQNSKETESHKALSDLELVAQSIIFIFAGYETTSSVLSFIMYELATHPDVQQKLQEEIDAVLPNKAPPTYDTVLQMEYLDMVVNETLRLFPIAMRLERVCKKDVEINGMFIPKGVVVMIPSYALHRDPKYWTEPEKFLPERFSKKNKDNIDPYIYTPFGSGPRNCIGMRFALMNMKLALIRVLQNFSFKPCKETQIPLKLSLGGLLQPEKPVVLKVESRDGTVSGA

[8] = tested on: Streptococcus; assay: GAS UMAA2166 growth inhibition – luminescence, BacTiterGlo, counter-screen for streptokinase expression inhibitor project, dose response (AID 1915); format: functional, organism-based; details: read-out: EC50;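 further: potency for reduction of bacterial viability or growth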
[9] = tested on: Streptococcus sp. 'group A'; assay: Streptococcus pyogenes SK(-)GAS viability under kanamycin – luminescence, BacTiterGlo, confirmation, counter-screen for streptokinase expression inhibitor project, dose response (AID 1900); format: functional, organism-based
[10] = Luminescence Cell-Based Dose Retest to Confirm Inhibitors of Cancer Stem Cells. [Related pubchem assays (depositor defined):AID2717, AID2721]; format: functional; details: Homo sapiens

Structure (SMILES): CN(C)CCCNCC(=O)c1c(-c2ccccc2)n(C)c2ccccc12
IC50 [1]: 94.7 µM (active)

Structure (SMILES): O=c1[nH]c2ccccc2n2c(S)nnc12
IC50 [1]: 109 µM (active)

Structure (SMILES): Fc1ccccc1Cc1noc(CN2CCN(Cc3ccc4c(c3)OCO4)CC2)n1
EC50 [2]: 1.03 µM (active) | EC50 [3]: > 60 µM (not active)

Structure (SMILES): Cc1cc2ccc(OC(=O)c3ccc(NC(=N)N)cc3)cc2oc1=O
AC50 [6]: 2.51 µM (inconclusive)

Structure (SMILES): Fc1ccc(N2CCN(c3ncnc4c3nnn4Cc3ccccc3Cl)CC2)cc1
EC50 [2]: 2.46 µM (active) | EC50 [3]: > 60 µM (inconclusive)

Structure (SMILES): CCNc1ncc2nc(-c3ccccc3)c(=O)n(Cc3cccc(OC)c3)c2n1
AC50 ([4]; read-out: AC50): 39.8 µM (inconclusive)

Structure (SMILES): CC(C)CC(=O)Nc1sc2c(c1C#N)CC(C)(C)NC2(C)C
AC50 [7]: 14.1 µM (inconclusive) | AC50 ([4]; read-out: AC50): 28.2 µM (inconclusive)

Structure (SMILES): Cc1ccc(CNC(=O)CCC2CCCN(Cc3cccc4ncccc34)C2)o1 (stereo not drawn)
EC50 [2]: 0.193 µM (active) | EC50 [3]: > 60 µM (inconclusive)

Structure (SMILES): Cn1c(=O)[nH]c(N)c(Br)c1=O
IC50 [1]: 84.3 µM (active)

Structure (SMILES): O=C1CSC(=S)N1Nc1ccccc1
IC50 [1]: 54 µM (active)

Structure (SMILES): C/C(=N\NC(=O)c1cc2ccccc2cc1O)c1cc2ccccc2o1
EC50 [8]: 4.11 µM (active) | EC50 [9]: 1.77 µM (active)

Structure (SMILES): Cc1ccc(-c2nc(C(=O)NCCCN3CCOCC3)cc3c2[nH]c2ccccc23)cc1
EC50 [2]: 1.36 µM (active) | EC50 [3]: > 30 µM (not active)

Structure (SMILES): C/N=c1\scc(-c2ccc(OC)cc2)n1/N=C(\C)c1cccnc1
EC50 [2]: 1.79 µM (active) | EC50 [3]: > 30 µM (not active)

Structure (SMILES): C/C(Cn1cnc([N+](=O)[O-])n1)=N/NC(=O)COc1c(Cl)cc(Cl)cc1Cl
EC50 [2]: 0.143 µM (active) | EC50 [3]: > 60 µM (not active)

Structure (SMILES): CCNc1nc(NCC)nc(N/N=C/c2ccc(O)c(O)c2)n1
IC50 [1]: 45.5 µM (active)

Structure (SMILES): O=C(N/N=C/c1ccc(Cl)c([N+](=O)[O-])c1)c1cc(-c2ccccc2)nc2ccccc12
AC50 [10]: 2.08 µM (active)

Structure (SMILES): C/C(=C\C(=O)c1ccccc1)Nc1ccc(N2CCOCC2)cc1
EC50 [2]: 6.78 µM (active) | EC50 [3]: > 60 µM (not active)

Structure (SMILES): CCOc1cc(/C=N/NC(=O)c2cc(C)[nH]n2)ccc1OC(=O)c1ccc([N+](=O)[O-])cc1
AC50 [7]: 22.4 µM (inconclusive) | AC50 [5]: 1.78 µM (inconclusive) | AC50 [4]: inconclusive

Structure (SMILES): Brc1ccc(OCCn2ccnc2)cc1
EC50 [2]: 3.15 µM (active) | EC50 [3]: > 60 µM (not active)

Structure (SMILES): CC(C)CC(=O)c1c(O)c(C=O)c(O)c2c1O[C@@]1(C)[C@@H](C2)C[C@H]2C[C@@H]1C2(C)C [EUGLOBAL G1]
AC50 [10]: 2.68 µM (active)

Structure (SMILES): Cc1nc2c([nH]1)c(=O)n(C)c(=O)n2Cc1ccco1 [FURAFYLLINE]
AC50 [4]: inconclusive

Further lines, results first:

AC50 ([4]; read-out: AC50): 39.8 µM (inconclusive)
Structure (SMILES): COC(=O)C(C)(C(=O)OC)c1ccc([N+](=O)[O-])cn1

AC50 [5]: 0.891 µM (inconclusive)
Structure (SMILES): Cc1ccc(NC(=O)CCC(=O)c2ccc(F)cc2)cc1Cl

AC50 [6]: 25.1 µM (inconclusive)
Structure (SMILES): O=C(CCS(=O)(=O)c1cccc2nsnc12)NC1CCCCC1

AC50 [6]: 15.8 µM (inconclusive)
Structure (SMILES): CCOc1ccccc1NC(=O)C(=O)NCC1CCCN1CC (stereo not drawn)

IC50 [1]: 38 µM (active)
Structure (SMILES): CCN(CC)c1ccc(NC(=O)COC(=O)Cc2ccsc2)cc1

AC50 [7]: 25.1 µM (inconclusive)
Structure (SMILES): O=C(Nc1ccccc1)N1CCCC2(CCN(C(=O)c3cnccn3)CC2)C1

AC50 [5]: 0.794 µM (inconclusive)
Structure (SMILES): COc1ccc(Cc2nnc(NC(=O)c3cccc([N+](=O)[O-])c3C)s2)cc1

AC50 [5]: 17.8 µM (inconclusive)
Structure (SMILES): CCCCNC(=O)C1C2C=CC3(CN(Cc4ccccc4Cl)C(=O)C13)O2 (stereo not drawn)

AC50 [7]: 3.98 µM (inconclusive)
Structure (SMILES): Cc1cc(N(CN2CCCC2=O)C(=O)c2ccc(F)cc2)no1

AC50 [5]: 39.8 µM (inconclusive)
Structure (SMILES): Cc1cccc(C(=O)N/N=C/c2ccc(OCC(=O)N3CCCCC3)cc2)c1

— ChEMBL document CHEMBL1201862, “PubChem BioAssay data set” (2004)
